Measured values reported in patent US4276375A, “Determination of serine proteases” (AB Kabi, priority 1976, dated 1981).
Structures can show the parent of a compound that is named as a salt. Residues, ends and D or L forms follow the SMILES beside them. *: point of attachment. pNA = O=[N+]([O-])c1ccc(N*)cc1; Piperidide = C1CCN(*)CC1; Bz = O=C(c1ccccc1)*; NHiPr = CC(C)N*; OiPr = CC(C)O*

B1: factor Xa (Bos taurus) (protein)
chain 1: IVGGRDCAEGECPWQALLVNEENEGFCGGTILNEFYVLTAAHCLHQAKRFTVRVGDRNTEQEEGNEMAHEVEMTVKHSRFVKETYDFDIAVLRLKTPIRFRRNVAPACLPEKDWAEATLMTQKTGIVSGFGRTHEKGRLSSTLKMLEVPYVDRSTCKLSSSFTITPNMFCAGYDTQPEDACQGDSGGPHVTRFKDTYFVTGIVSWGEGCARKGKFGVYTKVSNFLKWIDKIMKARAGAAGSRGHSEAPATWTVPPPLPL
chain 2: ANSFLEEVKQGNLERECLEEACSLEEAREVFEDAEQTDEFWSKYKDGDQCEGHPCLNQGHCKDGIGDYTCTCAEGFEGKNCEFSTREICSLDNGGCDQFCREERSEVRCSCAHGYVLGDDSKSCVSTERFPCGKFTQGRS
notes: purchased Diagnostic Reagents (product 'Diagen', 6.4 Denson U)

Key:
Assay type in all cases: biochemical
[1] = molecular target: T1, factor Xa (Bos taurus, UniProt P00743); assay: Relative activity (rate of substrate hydrolysis, Δ OD/min at 405 nm); details: S-2222 = 100, 250 μl of 2 mmole/l substrate in 2500 μl, Tris buffer pH 8.3, 37° C.
T1 construct: purchased Diagnostic Reagents (product 'Diagen', 6.4 Denson U)
Procedure: (§1) Buffer Tris (tris(hydroxymethyl)aminomethane)
(§2) 0.05 mole/l, pH = 8.3, I = 0.25 (NaCl)
(§3) Enzyme Diagen (6.4 Denson U) (Diagnostic Reagents)
(§4) . 1 ampule is dissolved in 2 ml of water.
(§5) The substrate is dissolved in water to 2 mmole/l.
Substrate, +37° C.250 μl
(§6) Mix and read change of absorbance (Δ OD/min) at […]

[2] = molecular target: T1, factor Xa; assay: Determination of Km and Vmax (Lineweaver-Burk, hydrolysis of chromogenic substrate read at 405 nm); details: value is Vmax multiplied by 10^8; Tris buffer pH 8.3, I 0.25, 37° C., enzyme Diagen
Procedure: (§7) Km and Vmax are obtained by means of the Lineweaver-Burk equation: [formula] Enzyme and substrate are mixed in a buffer solution and the rate of hydrolysis is measured spectrophotometrically. The substrate concentration (So) is varied while the enyzme concentration is kept constant. The reciprocal velocity l/vo is then plotted against the reciprocal substrate concentration l/So, and Km and Vmax are estimated (Table 1) from the obtained Lineweaver-Burk diagram.
as §1, §2, §3, §4, §5, §6

[3] = substrate: CC[C@H](C)[C@H](NC(=O)c1ccccc1)C(=O)N[C@@H](CCC(=O)NC(C)C)C(=O)NCC(=O)N[C@@H](CCCNC(=N)N)C(=O)Nc1ccc([N+](=O)[O-])cc1; assay: as above; details: other: value is Km multiplied by 10^4, Tris buffer 0.05 mole/l, pH 8.3, I 0.25 (NaCl), 37° C., enzyme Diagen, 37.0 °C
Procedure: as §7, §1, §2, §3, §4, §5, §6

[4] = substrate: CC[C@H](C)[C@H](NC(=O)c1ccccc1)C(=O)N[C@@H](CCC(=O)OC)C(=O)NCC(=O)N[C@@H](CCCNC(=N)N)C(=O)Nc1ccc([N+](=O)[O-])cc1; assay: as above; details: other: value is Km multiplied by 10^4, Tris buffer 0.05 mole/l, pH 8.3, I 0.25 (NaCl), 37° C., enzyme Diagen, 37.0 °C
Procedure: as §7, §1, §2, §3, §4, §5, §6

[5] = substrate: CC[C@H](C)[C@H](NC(=O)c1ccccc1)C(=O)N[C@@H](CCC(=O)N1CCCCC1)C(=O)NCC(=O)N[C@@H](CCCNC(=N)N)C(=O)Nc1ccc([N+](=O)[O-])cc1; assay: as above; details: other: value is Km multiplied by 10^4, Tris buffer 0.05 mole/l, pH 8.3, I 0.25 (NaCl), 37° C., enzyme Diagen, 37.0 °C
Procedure: as §7, §1, §2, §3, §4, §5, §6

[6] = substrate: CC[C@H](C)[C@H](NC(=O)c1ccccc1)C(=O)N[C@@H](CCC(=O)OC(C)C)C(=O)NCC(=O)N[C@@H](CCCNC(=N)N)C(=O)Nc1ccc([N+](=O)[O-])cc1; assay: as above; details: other: value is Km multiplied by 10^4, Tris buffer 0.05 mole/l, pH 8.3, I 0.25 (NaCl), 37° C., enzyme Diagen, 37.0 °C
Procedure: as §7, §1, §2, §3, §4, §5, §6

[7] = substrate: CCOC(=O)CC[C@H](NC(=O)[C@@H](NC(=O)c1ccccc1)[C@@H](C)CC)C(=O)NCC(=O)N[C@@H](CCCNC(=N)N)C(=O)Nc1ccc([N+](=O)[O-])cc1; assay: as above; details: other: value is Km multiplied by 10^4, Tris buffer 0.05 mole/l, pH 8.3, I 0.25 (NaCl), 37° C., enzyme Diagen, 37.0 °C
Procedure: as §7, §1, §2, §3, §4, §5, §6

[8] = substrate: CC[C@H](C)[C@H](NC(=O)c1ccccc1)C(=O)N[C@@H](CCC(=O)O)C(=O)NCC(=O)N[C@@H](CCCN=C(N)N)C(=O)Nc1ccc([N+](=O)[O-])cc1; assay: as above; details: other: stated in the text; pH 8.3
Procedure: as §7, §1, §2, §3, §4, §5, §6

| Molecule | Relative activity [1] | Vmax · 10^8 [2] [mol/min · U] | also measured |
| --- | --- | --- | --- |
| CC[C@H](C)[C@H](NC(=O)c1ccccc1)C(=O)N[C@@H](CCC(=O)OC)C(=O)NCC(=O)N[C@@H](CCCNC(=N)N)C(=O)Nc1ccc([N+](=O)[O-])cc1 [Ex. 1, Bz-Ile-Glu(OMe)-Gly-Arg-pNA.HCl] (Bz-IE(OMe)GR-pNA) | 230 | 8.1 | – |
| CCOC(=O)CC[C@H](NC(=O)[C@@H](NC(=O)c1ccccc1)[C@@H](C)CC)C(=O)NCC(=O)N[C@@H](CCCNC(=N)N)C(=O)Nc1ccc([N+](=O)[O-])cc1 [Ex. 2, Bz-Ile-Glu(OEt)-Gly-Arg-pNA.HCl] (Bz-IE(OEt)GR-pNA) | 200 | 7.5 | – |
| CC[C@H](C)[C@H](NC(=O)c1ccccc1)C(=O)N[C@@H](CCC(=O)OC(C)C)C(=O)NCC(=O)N[C@@H](CCCNC(=N)N)C(=O)Nc1ccc([N+](=O)[O-])cc1 [Ex. 3, Bz-Ile-Glu(OisoPr)-Gly-Arg-pNA.HCl] (Bz-IE(OiPr)GR-pNA) | 220 | 7.1 | – |
| CC[C@H](C)[C@H](NC(=O)c1ccccc1)C(=O)N[C@@H](CCC(=O)NC(C)C)C(=O)NCC(=O)N[C@@H](CCCNC(=N)N)C(=O)Nc1ccc([N+](=O)[O-])cc1 [Ex. 6] (Bz-IE(NHiPr)GR-pNA) | 340 | 20.0 | – |
| CC[C@H](C)[C@H](NC(=O)c1ccccc1)C(=O)N[C@@H](CCC(=O)N1CCCCC1)C(=O)NCC(=O)N[C@@H](CCCNC(=N)N)C(=O)Nc1ccc([N+](=O)[O-])cc1 [Ex. 7] (Bz-IE(Piperidide)GR-pNA) | 300 | 8.6 | – |
| CC[C@H](C)[C@H](NC(=O)c1ccccc1)C(=O)N[C@@H](CCC(=O)O)C(=O)NCC(=O)N[C@@H](CCCNC(=N)N)C(=O)Nc1ccc([N+](=O)[O-])cc1 [Example S-2222, Benzoyl-Ile-Glu-Gly-Arg-p-nitroanilide, reference compound] (Bz-IEGR-pNA) | 100 | 8.6 | – |
| B1 | – | – | Km [3]: 560 µM; Km [4]: 260 µM; Km [5]: 170 µM; Km [6]: 210 µM; Km [7]: 290 µM; Km [8]: 830 µM |
